In patent publication US7790687B2, “Treatment for neurodegeneration” (Proximagen Ltd., priority 2005, dated 2010):
“Also recorded” adds a separate entry of the source.

Experiments:
[1] = tested on: TH positive cells in primary ventral mesencephalic cell cultures; test: MPP+ dose response on TH positive cell number in primary ventral mesencephalic cell cultures; type: cell-based, rat; conditions: 24 hrs MPP+ exposure, 0.1-10 μM, n=3; read-out: EC50, dopaminergic (TH positive) cell death
Procedure: (§1) Primary ventral mesencephalic cell cultures: Primary cell cultures were prepared by dissecting out the ventral mesencephalon from E14 rat foetuses. The dissected tissue was pooled and incubated with 0.1% Trypsin solution. This solution was then removed and replaced with Dulbecco's modified Eagles medium (DMEM) containing 10% foetal bovine serum (FBS) and 0.25% penicillin-streptomycin-neomycin (PSN), and the tissue centrifuged for 1 minute at 200 rpm at room temperature. The supernatant was then removed, fresh medium was added and the tissue mechanically dissociated using increasing fine bore fire-polished Pasteur pipettes. Cell density was assessed using a haematocytometer and cells were plated in culture medium containing 10% FBS and 0.25% PSN at a density of 1-1.5×10^5 on sterile coverslips coated with 0.01 % poly-D-lysine. After 4 days the culture medium was removed and replaced with fresh serum free DMEM prior to treatment with MPP+ or OPN. […]
MPP+ dose response: MPP+ was dissolved in sterile PBS and the primary cell cultures were incubated for 24 hrs with one of the following concentrations of MPP+: 0.1, 0.5, 1, 2, 5, 10 μM MPP+ or vehicle (PBS). […] An EC50 was calculated (3.076±0.56) and a high (10 μM) or low (2 μM) MPP+ concentration was used to investigate the role of OPN in dopaminergic cell survival. […]

[2] = tested on: TH positive cells in primary ventral mesencephalic cultures; test: Survival of TH positive cells in primary ventral mesencephalic cultures without MPP+ treatment; type: cell-based, rat; conditions: 24 hrs incubation, no MPP+ (no toxin), n=3
Procedure: as §1
(§2) Tyrosine hydroxylase (TH) immunohistochemistry: The culture medium was removed from the cells and the coverslips were fixed in 4% paraformaldehyde prior to peroxidase detection of TH using the ABC immunohistochemical method. Coverslips were mounted and examined using a Zeiss Axiophot microscope at a 50× magnification and the number of TH positive cells on each coverslip was manually counted in four fields chosen at random.(total area: 8 mm^2).

[3] = tested on: TH positive cells in primary ventral mesencephalic cultures; test: Survival of TH positive cells in primary ventral mesencephalic cultures, pre-treatment followed by MPP+; type: cell-based, rat; conditions: for effect on survival/death of TH positive cells: 24 hrs pre-treatment, n=3; for concentration of maximal efficacy (TH cell survival): lowest concentration used
Procedure: Primary ventral mesencephalic cell cultures: Primary cell cultures were prepared by dissecting out the ventral mesencephalon from E14 rat foetuses. The dissected tissue was pooled and incubated with 0.1% Trypsin solution. This solution was then removed and replaced with Dulbecco's modified Eagles medium (DMEM) containing 10% foetal bovine serum (FBS) and 0.25% penicillin-streptomycin-neomycin (PSN), and the tissue centrifuged for 1 minute at 200 rpm at room temperature. The supernatant was then removed, fresh medium was added and the tissue mechanically dissociated using increasing fine bore fire-polished Pasteur pipettes. Cell density was assessed using a haematocytometer and cells were plated in culture medium containing 10% FBS and 0.25% PSN at a density of 1-1.5×10^5 on sterile coverslips coated with 0.01 % poly-D-lysine. After 4 days the culture medium was removed and replaced with fresh serum free DMEM prior to treatment with MPP+ or OPN. Each treatment was done in triplicate per experiment and each series of experiments was repeated a further 2 times to give a final n=3.
Manipulation of the OPN system: Cultures were incubated with one of the following treatments for 24 hrs prior to MPP+ administration (either 10 μM or 2 μM MPP+): OPN protein (1, 5, 10, 25, 50 & 100 ng/ml), anti-OPN antibody (26.5, 53, 265, 530 ng/ml and 1.325, 2.65 μg/ml), anti-αv or anti-β3 integrin receptor subunit antibody (0.02, 0.04, 0.2, 0.4, 1 & 2 μg/ml). Control groups received no MPP+ treatment.
as §2

[4] = tested on: TH positive cells in the rat SN; test: Intranigral LPS injection, TH immunoreactive cell number in the SN; type: in vivo; conditions: compared to contralateral intact SN and to saline controls, present at 24, 48, 72 and 120 hrs
Procedure: (§3) Male Wistar rats (250-280 g) were obtained from Tuck (Essex, UK) and were kept on a 12 hour light/dark cycle at 21-24° C. with 55-65% humidity with unrestricted access to rat chow and water. All experiments were conducted according to the guidelines set out in the UK Animals (Scientific Procedures) Act 1986 and approved by the King's College London Ethics Committee.
(§4) Animals were randomly divided into 4 groups (n=16 in each group) anaesthetised with halothane (4% in 5%O2:95%CO2), placed in a stereotaxic frame (Kopf Instruments) with the incisor bar set at −3.3 mm and anaesthesia maintained using halothane (1.5-2%). The heads were shaved, scalp cut, skull exposed and a burr hole drilled on the left side of the skull. The following co-ordinates for the SN were used: AP: −4.8 mm, L: +2.0 mm, V: +8.0 mm (Paxinos & Watson, 1986). A 10 μl Hamilton syringe was used and 2 μl of LPS (n=8) (5 mg/ml dissolved in 0.9% sterile saline: E. coli 055:B5; Calbiochem, Nottingham, UK) or 2 μl of vehicle (0.9% sterile saline; n=8) was delivered over a period of 2 minutes. The needle was left in situ for a further 2 minutes before being slowly withdrawn. The wound was closed using Ethicon sutures and the animals allowed to recover from anaesthesia until freely moving before being returned to their home cages. […]

[5] = tested on: OPN immunoreactivity in the rat SN; test: Intranigral LPS injection, OPN immunoreactivity in the SN; type: in vivo; conditions: compared to saline treated animals
Procedure: as §3, §4

Compound `C[n+]1ccc(-c2ccccc2)cc1` [MPP+] has an EC50 [1] of 3.08 ± 0.56 µM.

“OPN protein fragment: 15 amino acid fragment of rat osteopontin containing the RGD αvβ3 integrin binding site and the α4 and α9 integrin subunit binding sites (TVDVPDGRGDSLAYG; listed as Rattus norvegicus)” was tested, and the “effect on viability of TH positive cells” value [2] was “not found to affect the viability; also recorded: no effect”, the “effect on survival/death of TH positive cells” value ([3]; then 2 μM MPP+ for 24 hrs) was “almost completely protected dopaminergic cells; also recorded: increased TH cell survival” and the “effect on survival/death of TH positive cells” value ([3]; then 10 μM MPP+ for 24 hrs) was “almost completely protected dopaminergic cells; also recorded: increased survival of TH positive cells”. For the same compound, the “concentration of maximal efficacy (TH cell survival)” value ([3]; then 2 μM MPP+) was 1 ng/mL and the “concentration of maximal efficacy (TH cell survival)” value ([3]; then 10 μM MPP+) was 1 ng/mL.

For lipopolysaccharide [LPS], the “decrease in TH positive cells in the LPS injected SN” value [4] was 70% and the “increase in OPN immunoreactivity” value [5] was 14 fold.
